The source of these data is US8865724B2, “Preparation of 2-methyl-4-amino-5(substituted-1H-1,2,3-triazolyl)methylpyrimidine derivatives and microbicidal activity thereof” (Central China Normal University, priority 2011, dated 2014).

Usually melting point stands for the temperature of the solid-liquid transition.

Some results are limits rather than exact numbers.

Data set [1] has as its system Rice Sheath Blight Disease. Kind of data set: Microbicidal activity, spray then strip inoculation (Embodiment 8). As to conditions: for pest or weed control at 500 µg/g: Oryza sativa, read-out: Rice Sheath Blight Disease Average inhibition rate (%).
Procedure: (§1) (Pseudomonassyringaepv. tomato (Okabe) Young, Dye & Wilkie), Cucumber Angular Leaf Spot, Rice Sheath Blight Disease (Rhizoctonia solani), Corynespora Leaf Spot of Cucumber (Corynespora cassiicola), Downy Mildew of Cucumber (Cucumber Downy Mildew).
(§2) Testing agents and control agents were sprayed uniformly at A.M. of a sunshine day on the cucumber seminal leaves. After 2 hours, the leaves were inoculated with pathogenic microbes and cultured at humidity. […] Strip inoculation is used for Rice Sheath Blight Disease and phytophthora blight of pepper, in which the liquor was sprayed and after 2 hours, inoculation of strips was performed followed by culturing at humidity. After full occurrence of diseases in the control group, state of illness was examined according to grading standards, and a disease index and inhibition rate were calculated.
Data set [2] has as its system Cucumber Angular Leaf Spot. The experiment in a line: Microbicidal activity on cucumber seedlings, spray then inoculation (Embodiment 8). As to conditions: for pest or weed control at 500 µg/g: Cucumis sativus, read-out: Cucumber Angular Leaf Spot Average inhibition rate (%).
Procedure: as §1, §2
The test system of another data set is anthracnose of cucumber. Kind of data set: Spawn growth rate on agar plates (Embodiment 9). The format is cell-based, GloeosporiumorbiculareArs. As to conditions: 48 h; testing concentration of 100 μg/g; Table 5.
For the next data set, the system named is Downy Mildew of Cucumber. The experiment in a line: Microbicidal activity on cucumber seedlings, spray then spore inoculation (Embodiment 8). As to conditions: for pest or weed control at 500 µg/g: Cucumis sativus, read-out: Downy Mildew of Cucumber Average inhibition rate (%).
In a further data set the test system is early blight of tomato. The experiment in a line: Spawn growth rate on agar plates (Embodiment 9). The format is cell-based, Alternaria solania. The following applies: 48 h; testing concentration of 100 μg/g; Table 5.
The test system of a further data set is tobacco brown spot. Kind of data set: microbe, parasite or virus in culture. The format is cell-based, Alternaria alternate (Fries) Keissler. The following applies: 48 h, testing concentration of 100 μg/g; Table 4; read-out: Tobacco brown spot Average inhibition rate (%).
Another data set concerns gray mold of cucumber. The experiment in a line: Spawn growth rate on agar plates (Embodiment 9). The format is cell-based, Botrytis cinerea. The following applies: 48 h, testing concentration of 100 μg/g; Table 4; read-out: Gray mold of cucumber Average inhibition rate (%).
For data set [3], the system named is Corynespora Leaf Spot of Cucumber. The experiment in a line: Microbicidal activity on cucumber seedlings, spray then spore inoculation (Embodiment 8). The following applies: for pest or weed control at 500 µg/g: Corynespora, in Cucumis sativus, read-out: Corynespora Leaf Spot of Cucumber Average inhibition rate (%).
Procedure: as §1, §2
In data set [4] the test system is Cucumber Angular Leaf Spot. The experiment in a line: Microbicidal activity on cucumber seedlings, spray then inoculation (Embodiment 7). As to conditions: for pest or weed control at 500 µg/g: Cucumis sativus, read-out: Cucumber bacterial spot (%), controlling effect.
Procedure: Testing Materials: Strain: Cucumber Angular Leaf Spot
Testing method: a cucumber seedling at the stage of 2 seminal leaves was inoculated by spraying a suspension of Cucumber Angular Leaf Spot. Testing agents and control agents were sprayed uniformly on the seminal leaves at A.M. of a sunshine day respectively. After 2 hours, the leaves were inoculated with pathogenic microbes and cultured at humidity. After full occurrence of disease in control group, state of illness was examined according to grading standards, and the controlling effects were measured.
The next data set deals with wheat scab. Kind of data set: microbe, parasite or virus in culture. The format is cell-based, Gibberella zeae. The following applies: 48 h, read-out: Wheat scab Average inhibition rate (%).
[5] abbreviates: testing concentration of 500 μg/g.

Procedure for Downy Mildew of Cucumber: as §1, §2

Consider `Cc1ncc(Cn2cc(COc3cccc(C(F)(F)F)c3)nn2)c(N)n1` [Compound 4], for which the melting point lay within 160 to 161 °C. Also, in [1], the pest or weed control at 500 µg/g is 60%. Also, the pest or weed control at 500 µg/g in [2] came out at 60%. The same compound displayed an inhibition of growth at 100 µg/g in the data set on anthracnose of cucumber of 65%. The pest or weed control at 500 µg/g with Downy Mildew of Cucumber was 35%. This compound had an inhibition of growth at 100 µg/g in the data set with early blight of tomato of 51%. Also, the inhibition of growth at 100 µg/g with tobacco brown spot is 66%. The inhibition of growth at 100 µg/g in the data set with gray mold of cucumber came to 77%. The pest or weed control at 500 µg/g in [3] was 70%.
For `Cc1ncc(Cn2cc(COC(=O)c3ccc([N+](=O)[O-])cc3)nn2)c(N)n1` [Compound 32], the pest or weed control at 500 µg/g in [4] and in data set [1] was 60% each time. Moreover, the inhibition of growth at 100 µg/g in the data set on anthracnose of cucumber turned out to be 67%; with early blight of tomato it was 63%; with tobacco brown spot it was 87%; in the data set on gray mold of cucumber, 59%.
Consider `Cc1ccc(Cl)c(OCc2cn(Cc3cnc(C)nc3N)nn2)c1` [Compound 5], for which the melting point was in the range of 184 to 185 °C. The pest or weed control at 500 µg/g in data set [1] is 80%. Also, the pest or weed control at 500 µg/g in data set [2] is 50%. Also, the pest or weed control at 500 µg/g in the data set with Downy Mildew of Cucumber came to 70%. Also, the inhibition of growth at 100 µg/g in the data set on tobacco brown spot amounted to 56%. For the same compound, the inhibition of growth at 100 µg/g with gray mold of cucumber was 67%. Besides, in data set [3], the pest or weed control at 500 µg/g turned out to be 70%.
`Cc1ncc(Cn2cc(COc3cccc(C)c3C)nn2)c(N)n1` [Compound 14] gave a melting point of 202 to 204 °C. Besides, in data set [1], the pest or weed control at 500 µg/g was 70%. Besides, in data set [2], the pest or weed control at 500 µg/g turned out to be 60%. Besides, the pest or weed control at 500 µg/g in the data set on Downy Mildew of Cucumber is 35%. Further, in the data set with tobacco brown spot, the inhibition of growth at 100 µg/g stood at 60%. The inhibition of growth at 100 µg/g in the data set with gray mold of cucumber was 54%. Further, in data set [3], the pest or weed control at 500 µg/g turned out to be 90%.
Take `Cc1ccc(C(=O)OCc2cn(Cc3cnc(C)nc3N)nn2)cc1` [Compound 38]: the melting point lay within 202 to 203 °C. In addition, the pest or weed control at 500 µg/g in data set [4] was found to be 60%. Further, the pest or weed control at 500 µg/g in data set [1] stood at 50%. Also, in data set [2], the pest or weed control at 500 µg/g is 40%. Also, in the data set with anthracnose of cucumber, the inhibition of growth at 100 µg/g amounted to 54%. The inhibition of growth at 100 µg/g in the data set with gray mold of cucumber stood at 61%. In addition, the inhibition of growth at 100 µg/g in the data set with wheat scab is 56%.
`Cc1ncc(Cn2cc(COc3ccc(Cl)cc3Cl)nn2)c(N)n1` [Compound 10] returned a melting point of 175 to 177 °C. Moreover, the pest or weed control at 500 µg/g in data set [1] was 70%. For the same compound, in data set [2], the pest or weed control at 500 µg/g was found to be 60%. The compound further had an inhibition of growth at 100 µg/g in the data set with anthracnose of cucumber of 64%. For the same compound, the pest or weed control at 500 µg/g in the data set with Downy Mildew of Cucumber was 50%. Besides, the inhibition of growth at 100 µg/g with tobacco brown spot turned out to be 58%. Besides, the inhibition of growth at 100 µg/g in the data set on gray mold of cucumber turned out to be 56%. Also, the pest or weed control at 500 µg/g in data set [3] stood at 70%.
Consider `Cc1ncc(Cn2cc(COC(=O)c3cc([N+](=O)[O-])cc([N+](=O)[O-])c3)nn2)c(N)n1` [Compound 35], for which the melting point was in the range of 142 to 143 °C. Also, the pest or weed control at 500 µg/g in [4] amounted to 45%. Also, the pest or weed control at 500 µg/g in [1] was determined as 50%. Further, the pest or weed control at 500 µg/g in [2] is 80%. In the data set with anthracnose of cucumber, this compound showed an inhibition of growth at 100 µg/g of 50%. Also, the inhibition of growth at 100 µg/g with tobacco brown spot came out at 75%. For the same compound, the inhibition of growth at 100 µg/g in the data set with gray mold of cucumber is 49%.
`Cc1ncc(Cn2cc(COc3ccc(Cl)cc3)nn2)c(N)n1` [Compound 2] yielded a melting point of 168 to 170 °C. In addition, the pest or weed control at 500 µg/g in data set [1] is 80%. Also, the pest or weed control at 500 µg/g in data set [2] was 60%. The compound further gave an inhibition of growth at 100 µg/g in the data set with anthracnose of cucumber of 50%. Further, in the data set with Downy Mildew of Cucumber, the pest or weed control at 500 µg/g was determined as 75%. Further, in the data set on tobacco brown spot, the inhibition of growth at 100 µg/g is 52%. Moreover, the inhibition of growth at 100 µg/g in the data set on gray mold of cucumber came out at 73%. Moreover, in the data set on wheat scab, the inhibition of growth at 100 µg/g turned out to be 51%. In addition, the pest or weed control at 500 µg/g in data set [3] is 55%.
Compound `Cc1ncc(Cn2cc(COc3ccc(C(=O)O)cc3)nn2)c(N)n1` [Compound 7] came in with a melting point above 260 °C. Moreover, the pest or weed control at 500 µg/g in data set [1] turned out to be 70%. Also, in data set [2], the pest or weed control at 500 µg/g stood at 55%. Besides, the pest or weed control at 500 µg/g with Downy Mildew of Cucumber was 40%. Besides, the inhibition of growth at 100 µg/g in the data set with tobacco brown spot was determined as 57%. In the data set with gray mold of cucumber, the inhibition of growth at 100 µg/g is 67%. In addition, in [3], the pest or weed control at 500 µg/g came to 70%.
Compound `Cc1ncc(Cn2cc(COc3ccc([N+](=O)[O-])cc3Cl)nn2)c(N)n1` [Compound 15] gave a melting point of 194 to 196 °C. Also, the pest or weed control at 500 µg/g in data set [1] came out at 60%. Further, the pest or weed control at 500 µg/g in data set [2] was found to be 60%. The compound further registered an inhibition of growth at 100 µg/g in the data set with anthracnose of cucumber of 57%. Besides, in the data set on Downy Mildew of Cucumber, the pest or weed control at 500 µg/g came out at 30%. Moreover, the inhibition of growth at 100 µg/g with gray mold of cucumber amounted to 44%. Moreover, the pest or weed control at 500 µg/g in data set [3] amounted to 80%.
As for `Cc1ncc(Cn2cc(COC(=O)c3cccc(Cl)c3)nn2)c(N)n1` [Compound 39], the melting point was 165 to 166 °C. Moreover, the pest or weed control at 500 µg/g in data set [4] amounted to 60%. The pest or weed control at 500 µg/g in [1] amounted to 60%. Also, the pest or weed control at 500 µg/g in [2] was found to be 10%. The inhibition of growth at 100 µg/g in the data set with anthracnose of cucumber stood at 52%. Further, in the data set with tobacco brown spot, the inhibition of growth at 100 µg/g worked out at 50%. For the same compound, in the data set with gray mold of cucumber, the inhibition of growth at 100 µg/g stood at 84%.
With Zhongshengmycin [reference compound], the “Cucumber bacterial spot (%), controlling effect” value in data set [4] (testing concentration of 500 μg/g, cucumber seedling) was 70.69%. For the same compound, the “Rice Sheath Blight Disease Average inhibition rate (%)” value in data set [1] (setting [5]) turned out to be 50%. In data set [2] (setting [5]), the “Cucumber Angular Leaf Spot Average inhibition rate (%)” value is on record as 70%. Besides, the “Downy Mildew of Cucumber Average inhibition rate (%)” value in the data set with Downy Mildew of Cucumber (setting [5]) is on record as 40%. Also, the “Corynespora Leaf Spot of Cucumber Average inhibition rate (%)” value in data set [3] (setting [5]) worked out at 50%.
